{"source": "patent US20250114335A1", "about": "“METHODS AND COMPOSITIONS FOR THE TREATMENT OF EPILEPSY” (ARIZONA BOARD OF REGENTS ON BEHALF OF THE UNIVERSITY OF …, priority 2022, published 2025)", "assay_type_in_all_cases": "in vivo, mouse", "key": {"[1]": {"system": "C3H-D/D (Scn8a-N1768D) adult mice", "assay": "Survival and seizure frequency, adult C3H-D/D mice followed until death", "conditions": "for observed standard effect size, Kaplan-Meier survival: treated versus untreated", "from_the_text": "(§1) Mouse strains: The C57BL/6J-N1768D congenic mouse (B6-D/+) was used for phenotyping, RNAseq, and BBB studies. In addition, a hybrid strain that was produced by backcross breeding to transfer the Scn8a-N1768D allele from the B6 to the C3H/HeJ strain background was used to further assess the effect of CND on survival and seizure frequency. After constructing an F1 by crossing male B6-D/+ heterozygotes to female C3H/HeJ, five rounds of backcrossing (N6) produced a […] and 98.5% C3H/HeJ-N1768D line (C3H-D/+). Sister-brother mating maintained the 98.5% C3H background. […] C3H-D/D mice have a delayed seizure onset (˜40-45 days) and an extended survival (65-70 days) with intermittent bouts of TCs (FIG. 1A).\n(§2) Phenotyping: Female and male mice on both the B6 and C3H backgrounds were housed in sex-specific groups of 3-4 per cage in a pathogen-free mouse facility with a 14 h light/10 h dark cycle (lights turned on at 5 am). A 24/7 video monitoring system was utilized to collect seizure data, with infrared illumination to monitor behavior during the dark period. Seizures were counted as individual TCs. Adult mice were followed from the age of 6 weeks, a period of time well before seizure onset, in order to identify the day of seizure onset. A seizure bout was defined as a cluster of seizures on consecutive days, and a gap as a seizure-free period of 3 days or more.\n(§3) Preparation of CND suspension for injections and oral dosing: Juvenile B6-D/D and adult B6-D/+ mice were given subcutaneous (s.c.) injections with either CND (2-4 mg/kg/day; doses that fall within the FDA-approved range for CND in both adults and children) or vehicle (VEH) (Sigma-Aldrich) (FIG. 1B). Oral dosing of adults was performed by thoroughly mixing 160 μl of suspension containing 1.28 mg of CND or VEH with 5 g of pure (organic) peanut butter in a petri dish. Mice were given 1 g pellet per mouse each day. Pellets were weighed each day to record the amount consumed, and 24/7 video was used to verify that each mouse was consuming the pellet. An average of 0.79 g (±0.36 g) was consumed by an adult mouse (˜20-25 g), corresponding to 9.1±4.2 mg/kg/day. No correlations were found for the amount of CND consumed and lifetime survival or number of TCs.\nData for the untreated mice were previously reported. Table 1 also provides C3H-D/D summary statistics for female untreated (N=15) and treated (N=15) and male untreated (N=27) and treated (N=16) monitored until the time of death."}, "[2]": {"system": "B6-D/D (Scn8a-N1768D) juvenile mice", "assay": "Survival and seizure frequency, B6-D/D juvenile mice", "conditions": "for Age at Death: daily s.c. injection", "from_the_text": "as §1, §2, §3\nSurvival and seizure frequency studies: B6-D/D mice were injected with CND (n=10) or VEH (n=10) at 15 days of age (P15) and followed to monitor TCs by 24/7 video recording until death (FIG. 1B). A separate set of 10 B6-D/D mice was administered a daily s.c. injection of 25 mg/kg/day phenytoin (PHT) suspension or VEH (US Pharmacopeia, Sigma-Aldrich). Oral administration of CND or VEH was initiated at the time of seizure onset (range P75-P85) for adult B6-D/+ females (N=10) and males (N=10) (FIG. 1B). Mice were monitored for seizures by 24/7 video recording until the time of death."}, "[3]": {"system": "hippocampal gene expression", "assay": "RNAseq and pathway analysis of hippocampal tissue, B6-D/D juveniles", "method": "(§4) Transcriptome studies: B6-D/D and wild-type (+/+) (n=3) were administered CND or VEH by s.c. injection for a period of 5 days starting at P15 and sacrificed for removal of hippocampal tissue (n=12) (FIG. 1B). Adult B6-D/+ male (n=3) mice were administered CND or VEH pellets as described above at the time of seizure onset and monitored for seizures for an extended period before sacrifice and removal of hippocampal tissue (100-160 d) (i.e., to match the age at which a VEH-treated male B6-D/+ experience ˜20 TCs) (FIG. 1B).\n(§5) RNA sequencing: Hippocampal tissues from 21 mice were obtained according to a sampling strategy that compared (1) untreated (VEH only) and treated B6-D/D (n=3) with age-matched B6-+/+ controls (n=3 per group), (2) untreated (VEH only) male B6-D/+ mice that had experienced ˜20 TCs (n=3 per group) with age-matched B6-+/+ controls (n=3 per group), and (3) male B6-D/+ mice that were treated with CND for an extended period (n=3 per group). Brains of treated and untreated mice were dissected to yield tissue samples from the hippocampus. Bulk tissue was stored in RNALater (Qiagen, Valencia, CA) at −80 degrees centigrade. The technique for analyzing hippocampal gene expression was performed. Briefly, RNA was isolated from hippocampal tissue, and initial QC was performed. Libraries were constructed using a stranded mRNA-Seq Kit, and average fragment size was assessed. After concentrations were determined with an adaptor-specific qPCR kit, equimolar samples were pooled and clustered for sequencing on a Novaseq instrument (Illumina). Sample data were demultiplexed, trimmed, and quality filtered, and Fastq files were splice-aligned against the […] reference genome using STAR aligner version 2.5.2b. Gene expression counts were obtained using htseq-count version 0.6.1. Both splice alignment and counting were performed with Ensembl Annotation of the NCBI reference genome, and raw counts were analyzed with edgeR version 3.16.5.\n(§6) Data and pathway analysis: Results of statistical summaries were generally expressed as mean±SD. Kaplan-Meier survival curves were used to test for differences in survival. […] A ‘perturbation signature’ approach was used to identify genome-wide differences in transcript abundance between transgenic mice (i.e., D/+, D/D, or +/+) that were untreated (VEH) or treated with CND. Differential expression analysis was performed. Briefly, the exactTest function was utilized in edgeR, and gene expression counts were first normalized using the calcNormFactors function. DEG analysis was performed on treatment versus control groups at two different ages using three biological replicates per group, which has been shown in power analyses to be sufficient to yield a true positive rate greater than 80% under the conditions used here. Multidimensional scaling (MDS) plots were constructed using the ‘plotMDS’ function in edgeR, which plots samples on a 2D scatterplot so that distances on the plot approximate the typical log 2 fold changes between samples. […] Rather than focusing on any single gene, bioinformatic analyses of our RNAseq data identified the most statistically significant biological pathways that were enriched given the set of DEGs in each experiment."}, "[4]": {"system": "hippocampal gene expression", "assay": "RNAseq and pathway analysis of hippocampal tissue, B6-D/+ adult males", "method": "as §4, §5, §6"}, "[5]": {"conditions": "B6-D/D juveniles, Treated, listed as CDN"}, "[6]": {"conditions": "CND-treated B6-D/D, FDR-adjusted P-value <0.05"}, "[7]": {"conditions": "treated juveniles, FDR cutoff 0.25"}}, "data": [{"compound": "CCOc1nc2cccc(C(=O)O)c2n1Cc1ccc(-c2ccccc2-c2nnn[nH]2)cc1", "note": "[CND, candesartan]", "values": [{"measurement": "gap days", "setting": "[1]; C3H Males (D/D), Treated", "value": 44.4, "unit": "days"}, {"measurement": "mean gap length", "setting": "[1]; C3H Males (D/D), Treated", "value": 4.7, "unit": "days"}, {"measurement": "increase in survival, treated versus untreated", "setting": "[1]; C3H-D/D females", "value": 47.5, "unit": "%"}, {"measurement": "reduction in post-onset seizure frequency", "setting": "[1]; C3H-D/D females", "value": 78.4, "unit": "%"}, {"measurement": "observed standard effect size, Kaplan-Meier survival", "setting": "[1]; C3H-D/D females", "value": 0.83}, {"measurement": "increase in survival, treated versus untreated", "setting": "[1]; C3H-D/D males", "value": 49.2, "unit": "%"}, {"measurement": "reduction in post-onset seizure frequency", "setting": "[1]; C3H-D/D males", "value": 48.0, "unit": "%"}, {"measurement": "observed standard effect size, Kaplan-Meier survival", "setting": "[1]; C3H-D/D males", "value": 0.79}, {"measurement": "days surviving longer than untreated", "setting": "[2]; B6-D/D", "value": 6.3, "unit": "days"}, {"measurement": "reduction in seizure frequency", "setting": "[2]; B6-D/D Juveniles", "value": 45.8, "unit": "%"}, {"measurement": "#TCs", "setting": "[2]; B6-D/D juveniles, Treated", "value": 119.0, "unit": "TCs"}, {"measurement": "#TCs/day (Life)", "setting": "[2]; B6-D/D juveniles, Treated", "value": 0.09, "unit": "TCs/day"}, {"measurement": "#TCs/day (PostTC)", "setting": "[2]; B6-D/D juveniles, Treated", "value": "15.4±10.3", "unit": "TCs/day"}, {"measurement": "#gaps", "setting": "[2]; B6-D/D juveniles, Treated", "value": 0.9}, {"measurement": "Age at Onset", "setting": "[2]; B6-D/D juveniles, Treated", "value": 21.4}, {"measurement": "Days with TCs", "setting": "[2]; B6-D/D juveniles, Treated", "value": 7.2, "unit": "days"}, {"measurement": "gap days", "setting": "[2]; B6-D/D juveniles, Treated", "value": 4.3, "unit": "days"}, {"measurement": "mean gap length", "setting": "[2]; B6-D/D juveniles, Treated", "value": 3.4}, {"measurement": "Age at Death", "setting": "[2]; B6-D/D juveniles, Treated", "value": "31.8 ± 2.7", "unit": "days"}, {"measurement": "Age at Death", "setting": "[2]; [5]", "value": 31.8, "unit": "days"}, {"measurement": "#TCs/day (PostTC)", "setting": "[2]; [5]", "value": 15.4, "unit": "TCs/day"}, {"measurement": "increase in survival of juveniles", "setting": "[2]; B6-D/D juveniles, treated versus VEH", "value": 27, "unit": "%"}, {"measurement": "observed standard effect size, Kaplan-Meier survival", "setting": "[2]; B6-D/D juveniles, treated versus untreated (VEH only)", "value": 0.79}, {"measurement": "TREATED z-score, upstream regulator ACKR2", "setting": "[3]; B6-D/D Juveniles", "value": "−2.00"}, {"measurement": "TREATED z-score, upstream regulator IL1B", "setting": "[3]; B6-D/D Juveniles", "value": 1.76}, {"measurement": "TREATED z-score, upstream regulator PTGER4", "setting": "[3]; B6-D/D Juveniles", "value": "−2.43"}, {"measurement": "TREATED z-score, upstream regulator SIRT1", "setting": "[3]; B6-D/D Juveniles", "value": "−2.83"}, {"measurement": "TREATED z-score, upstream regulator TGFB1", "setting": "[3]; B6-D/D Juveniles", "value": 0.42}, {"measurement": "TREATED z-score, upstream regulator TNF", "setting": "[3]; B6-D/D Juveniles", "value": 1.32}, {"measurement": "TREATED z-score, upstream regulator lipopolysaccharide", "setting": "[3]; B6-D/D Juveniles", "value": 3.19}, {"measurement": "number of down-regulated DEGs", "setting": "[3]; [6]", "value": 25}, {"measurement": "number of up-regulated DEGs", "setting": "[3]; [6]", "value": 50}, {"measurement": "z-score, EIF2 Signaling pathway", "setting": "[3]; [7]", "value": 3.2}, {"measurement": "z-score, Granzyme A Signaling pathway", "setting": "[3]; [7]", "value": "−3.4"}, {"measurement": "z-score, Mitochondrial Dysfunction pathway", "setting": "[3]; [7]", "value": "−3.8"}, {"measurement": "z-score, Oxidative Phosphorylation pathway", "setting": "[3]; [7]", "value": 5.0}, {"measurement": "odds ratio, enhancement of ETC gene activation in treated versus untreated", "setting": "[3]; treated juveniles, FDR≤0.25, 95% CI=3.5-979", "value": 23, "unit": "fold"}, {"measurement": "TREATED z-score, upstream regulator ERBB2", "setting": "[4]; B6-D/+ Adult males", "value": "−2.00"}, {"measurement": "TREATED z-score, upstream regulator NUPR1", "setting": "[4]; B6-D/+ Adult males", "value": "−2.00"}, {"measurement": "TREATED z-score, upstream regulator PTGS2", "setting": "[4]; B6-D/+ Adult males", "value": -2.8}, {"measurement": "number of canonical pathways predicted to be activated", "setting": "[4]; CND-treated B6-D/+ adult males", "value": 11}, {"measurement": "number of canonical pathways predicted to be deactivated", "setting": "[4]; CND-treated B6-D/+ adult males", "value": 3}, {"measurement": "number of enriched canonical pathways", "setting": "[4]; CND-treated B6-D/+ adult males", "value": 14}, {"measurement": "number of DEGs", "setting": "[4]; CND-treated B6-D/+ males", "value": 86}, {"measurement": "number of down-regulated DEGs", "setting": "[4]; CND-treated B6-D/+ males", "value": 10}, {"measurement": "number of up-regulated DEGs", "setting": "[4]; CND-treated B6-D/+ males", "value": 76}]}]}
